{"source": "patent KR20170021349A", "about": "“다양한 질병의 치료를 위한 jnk 신호 전달 경로의 세포 투과성 펩타이드 억제자의 새로운 용도” (자이겐 인플라메이션 리미티드, priority 2014, dated 2017)", "key": {"TC-3 cells [1]": {"test_system": "TC-3 cells", "assay": "IL-1-induced pancreatic beta-cell apoptosis", "assay_type": "cell-based", "details": "1 μM single addition"}, "gerbil": {"test_system": "gerbil", "details": "Carboni et al. 2004; cited from earlier work"}, "[2]": {"test_system": "Sprague-Dawley albino rats", "assay": "Light-induced photoreceptor damage (AMD model), ERG and ONL thickness", "assay_type": "in vivo, rat", "details": "for a-wave recovery (% of baseline) / b-wave recovery (% of baseline): 50 mg/kg i.p. x5"}, "Sprague-Dawley rats": {"test_system": "Sprague-Dawley rats", "assay": "STZ diabetic nephropathy model, chronic administration", "assay_type": "in vivo, rat", "details": "25 mg/kg po daily"}, "C57BL/6N mice": {"test_system": "C57BL/6N mice", "details": "Wang et al. 2004; cited from earlier work"}, "TC-3 cells [3]": {"test_system": "TC-3 cells", "assay": "Cellular import of fluorescein-labelled TAT and TAT-IB1(s) peptides", "assay_type": "cell-based", "details": "for time to enter cells: 1 μM labelled peptide"}, "JNK": {"test_system": "JNK", "details": "Dickens et al. 1997; cited from earlier work"}, "[4]": {"test_system": "primary embryonic cultures, PC12 cells, mice", "details": "at doses inhibiting JNK activation; cited from earlier work"}, "[5]": {"assay": "Phase II trial, post-surgery intraocular inflammation, vs dexamethasone eye drops", "assay_type": "in vivo, human"}, "[6]": {"test_system": "AP-1 DNA binding complex in HeLa nuclear extracts", "assay": "Gel retardation assay, AP-1 DNA binding complex after TNF-alpha", "assay_type": "cell-based", "details": "added 30 min before TNF-alpha 5 ng/ml"}}, "note": "No end group written: not given here."}
{"compound": "TDQSRPVQPFLNLTTPRKPRYTDPPRRRQRRKKRG (also: D-amino acids (positions not given here)) [D-TAT-IB1]", "values": [{"measurement": "IL-1-induced apoptosis", "setting": "TC-3 cells [1]; 2 days IL-1, similar extent as L-TAT-IB", "value": "감소시켰다"}]}
{"compound": "N#CC(c1ccnc(NCCc2cccnc2)n1)c1nc2ccccc2s1", "note": "(stereo not shown) [AS601245]", "values": [{"measurement": "protection against delayed loss of hippocampal CA1 neurons", "setting": "gerbil", "value": "현저한 보호를 제공한다"}]}
{"compound": "CC(C)(C)/[N+]([O-])=C/c1ccccc1", "note": "[PBN, 페닐-N-tert-부틸니트론, reference compound]", "values": [{"measurement": "a-wave recovery (% of baseline)", "setting": "[2]; day 9", "value": 70.4, "unit": "%"}, {"measurement": "b-wave recovery (% of baseline)", "setting": "[2]; day 9", "value": 100, "unit": "%"}, {"measurement": "a-wave recovery (% of baseline)", "setting": "[2]; day 16", "value": 79.6, "unit": "%"}, {"measurement": "b-wave recovery (% of baseline)", "setting": "[2]; day 16", "value": 103.6, "unit": "%"}, {"measurement": "a-wave recovery (% of baseline)", "setting": "[2]; day 23", "value": 76.2, "unit": "%"}, {"measurement": "b-wave recovery (% of baseline)", "setting": "[2]; day 23", "value": 102.4, "unit": "%"}, {"measurement": "ONL thickness loss (% vs non-induced control eyes)", "setting": "[2]; ip 50 mg/kg", "value": 16, "unit": "%"}, {"measurement": "ONL thickness", "setting": "[2]; ip 50 mg/kg, day 23, p<0.05 vs vehicle", "value": "34.05 ± 4.00", "unit": "μm"}]}
{"compound": "CCCCc1nc(Cl)c(CO)n1Cc1ccc(-c2ccccc2-c2nn[nH]n2)cc1", "note": "[로사르탄, 로사르탄 칼륨, reference compound]", "values": [{"measurement": "body weight vs vehicle-treated STZ rats", "setting": "Sprague-Dawley rats", "value": "현저하게 낮았다"}]}
{"compound": "Oc1c2ccccc2c2c3c(cccc13)N=N2", "note": "[SP600125]", "values": [{"measurement": "level of c-Jun phosphorylation", "setting": "C57BL/6N mice", "value": "c-Jun 인산화의 수준을 감소"}]}
{"compound": "NH2-GRKKRRQRRR-COOH (H-GRKKRRQRRR-OH) [L-TAT]", "values": [{"measurement": "time to enter cells", "setting": "TC-3 cells [3]", "value": "< 5 분"}]}
{"compound": "NH2-RRRQRRKKRG-COOH (H-RRRQRRKKRG-OH; also: D-amino acids (positions not given here)) [D-TAT]", "values": [{"measurement": "stability inside cells", "setting": "TC-3 cells [3]", "value": "극도로 안정하다"}, {"measurement": "time to enter cells", "setting": "TC-3 cells [3]", "value": "< 5 분"}]}
{"compound": "PGTGCGDTYRPKRPTTLNLFPQVPRSQDT [IB1-long]", "values": [{"measurement": "fold more efficient than c-Jun or ATF2 in binding JNK", "setting": "JNK", "value": "~100 배"}]}
{"compound": "IPSPSVEEPHKHRPTTLRLTTLGAQDS [IB2-long]", "values": [{"measurement": "fold more efficient than c-Jun or ATF2 in binding JNK", "setting": "JNK", "value": "~100 배"}]}
{"compound": "CCSCc1ccc2c(c1)c1c3c(c4c5cc(CSCC)ccc5n5c4c1n2[C@H]1C[C@](O)(C(=O)OC)[C@]5(C)O1)CNC3=O", "note": "[CEP-1347]", "values": [{"measurement": "neuronal survival", "setting": "[4]", "value": "신경 생존을 촉진한다"}]}
{"compound": "C[C@@H]1C[C@H]2[C@@H]3CCC4=CC(=O)C=C[C@]4(C)[C@@]3(F)[C@@H](O)C[C@]2(C)[C@@]1(O)C(=O)CO", "note": "[덱사메타손, reference compound]", "values": [{"measurement": "AEs leading to interruption of study treatment, events (%)", "setting": "[5]; eye drops", "value": "3 (5.5%)"}, {"measurement": "mild AEs, number of events (%)", "setting": "[5]; eye drops", "value": "42 (76.4%)"}, {"measurement": "moderate AEs, number of events (%)", "setting": "[5]; eye drops", "value": "9 (16.4%)"}, {"measurement": "patients with an AE within 24 h of administration", "setting": "[5]; eye drops", "value": 30, "unit": "%"}, {"measurement": "patients with intraocular pressure increased", "setting": "[5]; eye drops", "value": 14, "unit": "%"}, {"measurement": "severe AEs, number of events (%)", "setting": "[5]; eye drops", "value": "4 (7.3%)"}, {"measurement": "patients with rescue medication introduced", "setting": "[5]; eye drops 1 mg/ml 4x/day 21 d", "value": 4.0, "unit": "%"}, {"measurement": "SOC eye disorders, patients", "setting": "[5]; eye drops (16 patients)", "value": 32, "unit": "%"}, {"measurement": "premature withdrawal of study eye drops, patients (%)", "setting": "[5]; eye drops (N=50)", "value": "3 (6.0%)"}, {"measurement": "patients with an adverse event", "setting": "[5]; eye drops, 29/50", "value": 58, "unit": "%"}]}
{"compound": "NH2-GRKKRRQRRRPPRPKRPTTLNLFPQVPRSQD-COOH (H-GRKKRRQRRRPPRPKRPTTLNLFPQVPRSQD-OH) [L-TAT-IB1(s)]", "values": [{"measurement": "time to enter cells", "setting": "TC-3 cells [3]", "value": "< 5 분"}, {"measurement": "long-term protection against IL-1-induced cell death", "setting": "TC-3 cells [1]; 15 days IL-1", "value": "그렇지 않았다"}, {"measurement": "formation of AP-1 DNA binding complex", "setting": "[6]", "value": "감소시켰다"}]}
